Columns and labels:
[1] = target: T1, Fructose-1,6-bisphosphatase 1 (Homo sapiens, UniProt P09467); assay: Inhibition of human liver fructose-1,6-bisphosphatase expressed in Escherichia coli BL21 (DE3) assessed as reduction of NADP+ to NADPH by phosphoglucose isomerase/glucose-6-phosphate dehydrogenase coupled assay
T1 sequence (P09467 whole entry): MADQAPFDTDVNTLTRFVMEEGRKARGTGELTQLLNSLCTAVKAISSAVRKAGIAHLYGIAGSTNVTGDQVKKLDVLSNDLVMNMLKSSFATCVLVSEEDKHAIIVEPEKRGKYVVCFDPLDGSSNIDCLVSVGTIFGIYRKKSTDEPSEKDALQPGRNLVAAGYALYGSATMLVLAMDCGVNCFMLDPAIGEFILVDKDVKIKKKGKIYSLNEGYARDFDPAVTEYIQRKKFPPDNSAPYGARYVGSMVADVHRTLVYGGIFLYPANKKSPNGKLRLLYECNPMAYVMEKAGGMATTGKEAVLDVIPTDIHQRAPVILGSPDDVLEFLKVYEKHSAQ

[2] = target: T2, Fructose-1,6-bisphosphatase 1 (Sus scrofa, UniProt P00636); assay: Inhibition of pig kidney fructose-1,6-bisphosphatase expressed in Escherichia coli BL21 (DE3) assessed as reduction of NADP+ to NADPH by phosphoglucose isomerase/glucose-6-phosphate dehydrogenase coupled assay
T2 sequence (P00636 whole entry): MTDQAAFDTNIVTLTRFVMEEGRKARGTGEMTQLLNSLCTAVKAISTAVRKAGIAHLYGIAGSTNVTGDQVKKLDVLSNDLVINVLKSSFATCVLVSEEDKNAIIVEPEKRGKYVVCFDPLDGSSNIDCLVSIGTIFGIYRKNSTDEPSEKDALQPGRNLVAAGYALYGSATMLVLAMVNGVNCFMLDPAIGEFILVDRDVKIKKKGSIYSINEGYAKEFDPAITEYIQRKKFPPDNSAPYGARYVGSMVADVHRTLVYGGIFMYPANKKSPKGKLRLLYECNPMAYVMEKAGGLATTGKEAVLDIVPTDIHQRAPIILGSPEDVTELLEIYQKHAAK

SMILES | IC50 ([1]; read-out: IC50) [µM] | IC50 [2] | IC50 [1]
Nc1ncnc2c1ncn2[C@@H]1O[C@H](COP(=O)(O)O)[C@@H](O)[C@H]1O [ADENOSINE PHOSPHATE] | 9.8 |  | 
CC(=O)C1=C(O)C=C2Oc3c(C(C)=O)c(O)c(C)c(O)c3[C@@]2(C)C1=O [(+)-USNIC ACID] | 371 |  | 
Oc1cc(O)c2c(c1)oc1cc(O)cc(O)c12 |  | Not Active | Not Active
